The nature of series [1]: Pharmacokinetic assay in Balb/c mice (plasma and brain tissue). To be noted: mouse, po, 5 mg/kg p.o., male Balb/c mice; for AUC(0-t): read-out: Area under curve AUC0-t; for AUC(0-inf): read-out: Area under curve AUC0-∞; for half-life: read-out: Half-life t1/2 (converted); for MRT: read-out: Mean residence time MRT; for Tmax: read-out: Peak time tmax; for Cmax: read-out: Plasma concentration Cmax. The series is classed as in vivo. The procedure: Balb/c mice were used as test animals. The pharmacokinetic behavior in mice (plasma and brain tissue) of the compounds of Examples 2, 3, 5, 6, 9, 13, 59, 60, 61, 63, 71-74, 81, 103, 130, 134, 135, 137, 138, 140, 141, 143, 145 and 146 orally administered at a dose of 5 mg/kg was studied.
Each group had 24 male Balb/c mice. After an overnight fast, Balb/c mice were administered p.o. with the test compound at an administration dose of 5 mg/kg and an administration volume of 10 mL/kg.
0.2 ml of blood was taken from the heart before administration and at 0, 0.5, 1, 2, 4, 6, 8 and 24 hours after administration. The samples were stored in EDTA-K2 tubes, and centrifuged for 6 minutes at 4° C., 6000 rpm to separate the plasma. The plasma samples were stored at −80° C. The mice were sacrificed with CO2, and the whole brain tissue was taken out, weighed, placed in a 2 mL centrifuge tube and stored at −80° C.
1) 160 μL of acetonitrile was added to 40 μL of the plasma sample for precipitation, and then the mixture was centrifuged for 5-20 minutes at 3500×g.
2) 90 μL of acetonitrile containing the internal standard (100 ng/mL) was added to 30 μL of the plasma and brain homogenate samples for precipitation, and then the mixture was centrifuged for 8 minutes at 13000 rpm.
3) 70 μL of the treated supernatant was taken and added to 70 μL of water, and mixed by vortex for 10 minutes. 20 μL of the mixture was taken to analyze the concentration of the test compound by LC/MS/MS. LC/MS/MS analysis instrument: AB Sciex API 4000 Qtrap.
• Liquid chromatography condition: Shimadzu LC-20AD pump. • Chromatographic column: Agilent ZORBAX™ XDB-C18 (50×2.1 mm, 3.5 μm) (note: Aglient ZORBAX™ is a kind of column used in the reverse HPLC); • Mobile phase: Eluent A was 0.10% formic acid in water, and Eluent B was acetonitrile. • Flow rate: 0.4 mL/min • Elution time: 0-4.0 minutes, the eluent is as follows:
The main parameters of pharmacokinetics were calculated by WinNonlin 6.1.

In another series the target is GABA-A receptor. Put plainly: 35S-TBPS binding assay (GABAA receptor binding ability test). Further details: species or system Sprague-Dawley rat. The conditions noted are these: rat cerebral cortex cell membrane, 5 μM GABA, 2 nM 35S-TBPS; read-out: 35S-TBPS bindng test: IC50 on inhibiting the TBPS binding activity. The procedure, abridged:
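Rat (male Sprague-Dawley) cortical membranes in PBS were preincubated 5 min at 25° C with compound (from 1 μM, 3-fold, 8 points, 1% DMSO), then 5 μM GABA 5 min, then 2 nM ^35S-TBPS for 20 h at 4° C. Filter-bound counts gave % inhibition against DMSO and 10 μM P026-2 controls; IC50 by 4-parameter fit.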

pIC50: −log10 of the molar value. Like-named read-outs stand apart in the source and are kept apart here.

As for `CC[C@@H]1C[C@H](C(=O)Cn2nccn2)[C@@]2(C)CC[C@H]3[C@@H](CC[C@@H]4C[C@](C)(O)CC[C@@H]43)[C@H]12` [Example 141, 1-((3R,5R,8R,9R,10S,13S,14S,15R,17S)-15-Ethyl-3-hydroxy-3,13-dimethylhexadecahydro-1H-cyclopenta[a]phenanthren-17-yl)-2-(2H-1,2,3-triazol-2-yl)ethan-1-one], in series [1] (brain tissue), the AUC(0-t) was 2150 ng·h/mL, the AUC(0-inf) came to 2250 ng·h/mL, the half-life was 1.68 h and the mean residence time (MRT) was found to be 2.68 h. For the same molecule, in series [1] (brain tissue), the Tmax amounted to 0.5 h and the Cmax came to 1050 ng/mL. In series [1] (plasma), the AUC(0-t) worked out at 3550 ng·h/mL, the AUC(0-inf) amounted to 3630 ng·h/mL, the half-life is 1.35 h and the MRT was 2.55 h. Besides, in series [1] (plasma), the Tmax is 0.5 h and the Cmax is 1630 ng/mL. The negative logarithm of the IC50 (pIC50) at GABA-A receptor was 7.62.
As to `C[C@@H]1C[C@H](C(=O)Cn2cc(C(F)(F)F)cn2)[C@@]2(C)CC[C@H]3[C@@H](CC[C@@H]4C[C@](C)(O)CC[C@@H]43)[C@H]12` [Example 59, 1-((3R,5R,8R,9R,10S,13S,14S,15R,17S)-3-Hydroxy-3,13,15-trimethylhexadecahydro-1H-cyclopenta[a]phenanthren-17-yl)-2-(4-(trifluoromethyl)-1H-pyrazol-1-yl)ethan-1-one], in series [1] (brain tissue), the AUC(0-t) worked out at 2640 ng·h/mL, the AUC(0-inf) turned out to be 2680 ng·h/mL, the half-life was 3.18 h and the MRT came out at 4.81 h. In series [1] (brain tissue), the Tmax came to 1 h and the Cmax was determined as 678 ng/mL. In series [1] (plasma), the AUC(0-t) was 1300 ng·h/mL, the AUC(0-inf) amounted to 1320 ng·h/mL, the half-life is 2.99 h and the MRT amounted to 4.15 h. Besides, in series [1] (plasma), the Tmax is 0.5 h and the Cmax was found to be 554 ng/mL. Also, at GABA-A receptor, the pIC50 is 8.21.
For `CC[C@@H]1C[C@H](C(=O)Cn2ccc(C(F)(F)F)n2)[C@@]2(C)CC[C@H]3[C@@H](CC[C@@H]4C[C@](C)(O)CC[C@@H]43)[C@H]12` [Example 138, 1-((3R,5R,8R,9R,10S,13S,14S,15R,17S)-15-Ethyl-3-hydroxy-3,13-dimethylhexadecahydro-1H-cyclopenta[a]phenanthren-17-yl)-2-(3-(trifluoromethyl)-1H-pyrazol-1-yl)ethan-1-one], in series [1] (brain tissue), the AUC(0-t) is 773 ng·h/mL, the AUC(0-inf) was found to be 935 ng·h/mL, the half-life was 1.47 h and the MRT was 2.38 h. In series [1] (brain tissue), the Tmax came to 0.5 h and the Cmax stood at 314 ng/mL. In series [1] (plasma), the AUC(0-t) amounted to 662 ng·h/mL, the AUC(0-inf) stood at 730 ng·h/mL, the half-life was 1.66 h and the MRT amounted to 2.83 h. In series [1] (plasma), the Tmax is 0.5 h and the Cmax is 432 ng/mL. The pIC50 at GABA-A receptor was 7.60.
`C[C@@H]1C[C@H](C(=O)Cn2ncnn2)[C@@]2(C)CC[C@H]3[C@@H](CC[C@@H]4C[C@](C)(O)CC[C@@H]43)[C@H]12` [Example 63, 1-((3R,5R,8R,9R,10S,13S,14S,15R,17S)-3-Hydroxy-3,13,15-trimethylhexadecahydro-1H-cyclopenta[a]phenanthren-17-yl)-2-(2H-tetrazol-2-yl)ethan-1-one]: in series [1] (brain tissue), the AUC(0-t) worked out at 603 ng·h/mL, the AUC(0-inf) was found to be 618 ng·h/mL, the half-life is 0.72 h and the MRT worked out at 1.21 h. Moreover, in series [1] (brain tissue), the Tmax was found to be 0.5 h and the Cmax came out at 486 ng/mL. In addition, in series [1] (plasma), the AUC(0-t) came out at 599 ng·h/mL, the AUC(0-inf) was found to be 604 ng·h/mL, the half-life was 2.58 h and the MRT was found to be 2.42 h. Besides, in series [1] (plasma), the Tmax was 0.5 h and the Cmax is 335 ng/mL. Moreover, at GABA-A receptor, the pIC50 was 8.21.
In the case of `C[C@@H]1C[C@H](C(=O)Cn2cc(C#N)c(Cl)n2)[C@@]2(C)CC[C@H]3[C@@H](CC[C@@H]4C[C@](C)(O)CC[C@@H]43)[C@H]12` [Example 134, 3-Chloro-1-(2-((3R,5R,8R,9R,10S,13S,14S,15R,17S)-3-hydroxy-3,13,15-trimethylhexadecahydro-1H-cyclopenta[a]phenanthren-17-yl)-2-oxoethyl)-1H-pyrazole-4-carbonitrile], in series [1] (brain tissue), the AUC(0-t) was 3210 ng·h/mL, the AUC(0-inf) was found to be 3500 ng·h/mL, the half-life is 1.59 h and the MRT is 3.22 h. In addition, in series [1] (brain tissue), the Tmax stood at 1 h and the Cmax was 892 ng/mL. Besides, in series [1] (plasma), the AUC(0-t) was determined as 4630 ng·h/mL, the AUC(0-inf) is 5130 ng·h/mL, the half-life was 1.78 h and the MRT worked out at 3.31 h. For the same molecule, in series [1] (plasma), the Tmax was determined as 0.5 h and the Cmax is 1750 ng/mL. The pIC50 on GABA-A receptor is 8.17.
For `C[C@@]1(O)CC[C@H]2[C@H](CC[C@@H]3[C@@H]2CC[C@@]2(C)[C@H]3[C@@H]3C[C@@H]3[C@@H]2C(=O)Cn2ccc(C(F)(F)F)n2)C1` [Example 6, 1-((2R,4aS,4bR,6aS,7S,7aS,8aR,8bR,8cR,10aR)-2-Hydroxy-2,6a-dimethyloctadecahydrocyclopropa[4,5]cyclopenta[1,2-a]phenanthren-7-yl)-2-(3-(trifluoromethyl)-1H-pyrazol-1-yl)ethan-1-one], in series [1] (brain tissue), the AUC(0-t) came to 917 ng·h/mL, the AUC(0-inf) is 964 ng·h/mL, the half-life is 1.9 h and the MRT is 2.4 h. For the same molecule, in series [1] (brain tissue), the Tmax was determined as 0.5 h and the Cmax was determined as 464 ng/mL. Also, in series [1] (plasma), the AUC(0-t) worked out at 409 ng·h/mL, the AUC(0-inf) stood at 484 ng·h/mL, the half-life is 3.19 h and the MRT turned out to be 4.03 h. In series [1] (plasma), the Tmax amounted to 0.5 h and the Cmax amounted to 219 ng/mL. Besides, the pIC50 at GABA-A receptor is 8.51.
`CC[C@@H]1C[C@H](C(=O)Cn2ccnn2)[C@@]2(C)CC[C@H]3[C@@H](CC[C@@H]4C[C@](C)(O)CC[C@@H]43)[C@H]12` [Example 140, 1-((3R,5R,8R,9R,10S,13S,14S,15R,17S)-15-Ethyl-3-hydroxy-3,13-dimethylhexadecahydro-1H-cyclopenta[a]phenanthren-17-yl)-2-(1H-1,2,3-triazol-1-yl)ethan-1-one]: in series [1] (brain tissue), the AUC(0-t) was 4330 ng·h/mL, the AUC(0-inf) was 4540 ng·h/mL, the half-life was 1.21 h and the MRT is 2.1 h. In series [1] (brain tissue), the Tmax amounted to 0.5 h and the Cmax was found to be 1740 ng/mL. Also, in series [1] (plasma), the AUC(0-t) was 5980 ng·h/mL, the AUC(0-inf) is 6110 ng·h/mL, the half-life is 1.19 h and the MRT was 2.22 h. In series [1] (plasma), the Tmax stood at 0.5 h and the Cmax was 2480 ng/mL. At GABA-A receptor, the pIC50 was 7.48.
